Experimental data from PubChem BioAssay (NCI).
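Following 48 hours of exposure in 96-well plates, responses at five concentrations were used to interpolate endpoints linearly. Abbreviation: GI50, concentration required for 50% inhibition of growth. The concentration for full growth arrest is given as TGI.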

How the values were obtained:
Assay in all cases: NCI tumour cell line growth inhibition, 48 h
A498 renal = tested on: A498 renal
SK-MEL-5 melanoma = tested on: SK-MEL-5 melanoma
SK-OV-3 ovarian = tested on: SK-OV-3 ovarian
SF-539 CNS = tested on: SF-539 CNS
EKVX NSCLC = tested on: EKVX NSCLC
UACC-62 melanoma = tested on: UACC-62 melanoma
OVCAR-8 ovarian = tested on: OVCAR-8 ovarian
SN12C renal = tested on: SN12C renal
NCI-H23 lung = tested on: NCI-H23 lung
NCI-H226 lung = tested on: NCI-H226 lung
SK-MEL-2 melanoma = tested on: SK-MEL-2 melanoma
HL-60(TB) leukemia = tested on: HL-60(TB) leukemia
RXF 393 renal = tested on: RXF 393 renal
COLO 205 colon = tested on: COLO 205 colon
T-47D breast = tested on: T-47D breast
M14 melanoma = tested on: M14 melanoma
MDA-MB-435 = tested on: MDA-MB-435
SNB-75 CNS = tested on: SNB-75 CNS
ACHN renal = tested on: ACHN renal
SF-295 CNS = tested on: SF-295 CNS
K-562 leukemia = tested on: K-562 leukemia
SNB-19 CNS = tested on: SNB-19 CNS
HCT-116 colon = tested on: HCT-116 colon
786-0 renal = tested on: 786-0 renal
NCI-H522 lung = tested on: NCI-H522 lung
MCF7 breast = tested on: MCF7 breast
U251 CNS = tested on: U251 CNS
IGROV1 ovarian = tested on: IGROV1 ovarian
LOX IMVI melanoma = tested on: LOX IMVI melanoma
CAKI-1 renal = tested on: CAKI-1 renal
HOP-62 NSCLC = tested on: HOP-62 NSCLC
HT29 colon = tested on: HT29 colon
UO-31 renal = tested on: UO-31 renal
MOLT-4 leukemia = tested on: MOLT-4 leukemia
TK-10 renal = tested on: TK-10 renal
NCI-H460 lung = tested on: NCI-H460 lung
KM12 colon = tested on: KM12 colon
NCI/ADR-RES ovarian = tested on: NCI/ADR-RES ovarian
SR leukemia = tested on: SR leukemia
HS 578T breast = tested on: HS 578T breast
RPMI-8226 leukemia = tested on: RPMI-8226 leukemia
HCT-15 colon = tested on: HCT-15 colon
SF-268 CNS = tested on: SF-268 CNS
PC-3 prostate = tested on: PC-3 prostate
OVCAR-5 ovarian = tested on: OVCAR-5 ovarian
A549 NSCLC = tested on: A549 NSCLC
UACC-257 melanoma = tested on: UACC-257 melanoma
HOP-92 NSCLC = tested on: HOP-92 NSCLC
DU-145 prostate = tested on: DU-145 prostate
SK-MEL-28 melanoma = tested on: SK-MEL-28 melanoma
BT-549 breast = tested on: BT-549 breast
OVCAR-4 ovarian = tested on: OVCAR-4 ovarian
OVCAR-3 ovarian = tested on: OVCAR-3 ovarian
SW-620 colon = tested on: SW-620 colon

Structure (SMILES): COc1ccc2c(c1OC)CO[C@@H]2[C@H]1c2c(c(Br)c3c(c2OC)OCO3)CCN1C
- GI50 (A498 renal): 2.27 µM
- TGI (A498 renal): 4.43 µM
- GI50 (SK-MEL-5 melanoma): 2.42 µM
- TGI (SK-MEL-5 melanoma): 11.8 µM
- GI50 (SK-OV-3 ovarian): 61.2 µM
- TGI (SK-OV-3 ovarian): > 100 µM
- GI50 (SF-539 CNS): 2.83 µM
- TGI (SF-539 CNS): 9.3 µM
- GI50 (EKVX NSCLC): 3.95 µM
- TGI (EKVX NSCLC): 34.8 µM
- GI50 (UACC-62 melanoma): 2.07 µM
- TGI (UACC-62 melanoma): 9.2 µM
- GI50 (OVCAR-8 ovarian): 7.3 µM
- TGI (OVCAR-8 ovarian): > 100 µM
- GI50 (SN12C renal): 3.98 µM
- TGI (SN12C renal): 16.8 µM
- GI50 (NCI-H23 lung): 4.1 µM
- TGI (NCI-H23 lung): 22 µM
- GI50 (NCI-H226 lung): 5.16 µM
- TGI (NCI-H226 lung): 32.3 µM
- GI50 (SK-MEL-2 melanoma): 5.77 µM
- TGI (SK-MEL-2 melanoma): 43.7 µM
- GI50 (HL-60(TB) leukemia): 1.89 µM
- TGI (HL-60(TB) leukemia): > 100 µM
- GI50 (RXF 393 renal): 4.9 µM
- TGI (RXF 393 renal): 29.8 µM
- GI50 (COLO 205 colon): 31.4 µM
- TGI (COLO 205 colon): 85.4 µM
- GI50 (T-47D breast): 66.8 µM
- TGI (T-47D breast): > 100 µM
- GI50 (M14 melanoma): 3.47 µM
- TGI (M14 melanoma): 9.74 µM
- GI50 (MDA-MB-435): 3.07 µM
- TGI (MDA-MB-435): 8.69 µM
- GI50 (SNB-75 CNS): 40.2 µM
- TGI (SNB-75 CNS): > 100 µM
- GI50 (ACHN renal): 6.63 µM
- TGI (ACHN renal): > 100 µM
- GI50 (SF-295 CNS): 2.84 µM
- TGI (SF-295 CNS): 7.65 µM
- GI50 (K-562 leukemia): 2.37 µM
- TGI (K-562 leukemia): > 100 µM
- GI50 (SNB-19 CNS): 39.2 µM
- TGI (SNB-19 CNS): > 100 µM
- GI50 (HCT-116 colon): 5.09 µM
- TGI (HCT-116 colon): 22.6 µM
- GI50 (786-0 renal): 4.66 µM
- TGI (786-0 renal): 19.3 µM
- GI50 (NCI-H522 lung): 3.41 µM
- TGI (NCI-H522 lung): 23.1 µM
- GI50 (MCF7 breast): 3.19 µM
- TGI (MCF7 breast): 29.3 µM
- GI50 (U251 CNS): 4.59 µM
- TGI (U251 CNS): 70.6 µM
- GI50 (IGROV1 ovarian): 8.73 µM
- TGI (IGROV1 ovarian): > 100 µM
- GI50 (LOX IMVI melanoma): 2.67 µM
- TGI (LOX IMVI melanoma): 12.2 µM
- GI50 (CAKI-1 renal): 4.17 µM
- TGI (CAKI-1 renal): 22.1 µM
- GI50 (HOP-62 NSCLC): 5.88 µM
- TGI (HOP-62 NSCLC): 32.7 µM
- GI50 (HT29 colon): 30.7 µM
- TGI (HT29 colon): > 100 µM
- GI50 (UO-31 renal): 10.6 µM
- TGI (UO-31 renal): > 100 µM
- GI50 (MOLT-4 leukemia): 3.55 µM
- TGI (MOLT-4 leukemia): > 100 µM
- GI50 (TK-10 renal): 4.42 µM
- TGI (TK-10 renal): 21.6 µM
- GI50 (NCI-H460 lung): 3.03 µM
- TGI (NCI-H460 lung): 14 µM
- GI50 (KM12 colon): 4.26 µM
- TGI (KM12 colon): 23.8 µM
- GI50 (NCI/ADR-RES ovarian): 4.45 µM
- TGI (NCI/ADR-RES ovarian): > 100 µM
- GI50 (SR leukemia): 1.01 µM
- TGI (SR leukemia): > 100 µM
- GI50 (HS 578T breast): 3.08 µM
- TGI (HS 578T breast): 12.7 µM
- GI50 (RPMI-8226 leukemia): 4.24 µM
- TGI (RPMI-8226 leukemia): > 100 µM
- GI50 (HCT-15 colon): 2.69 µM
- TGI (HCT-15 colon): > 100 µM
- GI50 (SF-268 CNS): 5.16 µM
- TGI (SF-268 CNS): 25.5 µM
- GI50 (PC-3 prostate): 8.74 µM
- TGI (PC-3 prostate): > 100 µM
- GI50 (OVCAR-5 ovarian): 18.6 µM
- TGI (OVCAR-5 ovarian): > 100 µM
- GI50 (A549 NSCLC): 7.53 µM
- TGI (A549 NSCLC): > 100 µM
- GI50 (UACC-257 melanoma): 4.28 µM
- TGI (UACC-257 melanoma): 19.9 µM
- GI50 (HOP-92 NSCLC): 6.74 µM
- TGI (HOP-92 NSCLC): 57.6 µM
- GI50 (DU-145 prostate): 6.96 µM
- TGI (DU-145 prostate): > 100 µM
- GI50 (SK-MEL-28 melanoma): 36.6 µM
- TGI (SK-MEL-28 melanoma): > 100 µM
- GI50 (BT-549 breast): 6.8 µM
- TGI (BT-549 breast): 35.9 µM
- GI50 (OVCAR-4 ovarian): > 100 µM
- TGI (OVCAR-4 ovarian): > 100 µM
- GI50 (OVCAR-3 ovarian): 3.91 µM
- TGI (OVCAR-3 ovarian): 13.6 µM
- GI50 (SW-620 colon): 3.57 µM
- TGI (SW-620 colon): > 100 µM
